Laboratory results published in patent US20190015551A1, “CONSTRUCT FOR PREVENTING IMMUNOLOGICAL REJECTION GENERATED WHEN USED IN TRANSPLANTS, AND METHOD FOR USING COLLAGEN IN A GEL STATE, IN THE FORM OF DRY LYOPHILISED SPONGY MOULDINGS AND 3D MATRICES” (ADG I+D SPA, priority 2015, published 2019).

Tested on: bacterial colonies in pig tissue
Experiment: Microbiological control of pig tissue treated with disinfectants (CFU/plate)
Type: cell-based
Text: FIG. 3. It is shown the microbiological control of tissue for obtaining the collagen product, by means of the methodology described in the present application. It corresponds to CFU/plate in pig tissue treated with povidone-iodine or peracetic acid. […] Abbreviations: PY—povidone-iodine, PA—Peracetic Acid, CFU—colony forming units, CC—work bell control.
FIG. 4. It is shown results of microbiological control. The photographs of the culture plates show the initial growth of bacterial colonies at the beginning (time 0), and the decrease of CFU at 5 minutes, 30 minutes, 1 hour and 3 hours of exposure to the disinfectant; in the top panel povidone-iodine (PY) and in the lower panel peracetic acid (PA).
• i) Sterilization and freezing of the tissue: Pig's head cheeks skin from 175 to 190 days of age were used. Which was immersed for 3.5 hours in a commercial solution of povidone-iodine 10% (Brand: Centrovet) and brushed on both sides every 30 minutes, in a sterile environment, and rinsed with ultra-pure quality water. […] The disinfected tissue is bagged and sealed to freeze at −80° C. (±2.0° C.) in ultra freezer (Brand: Thermoline).

In the case of CC(=O)OO [PA, peracetic acid], the “formation of bacterial colonies on culture plates” value (3 hours of exposure to the disinfectant) was “the presence of a colony still persists”, the “UCF/plate in pig tissue treated with PY or PA” value (“UCF/plate in pig tissue treated” below) (exposition time 0 min) was 132 UCF/plate and the “UCF/plate in pig tissue treated” value (exposition time 5 min) was 2 UCF/plate. The “UCF/plate in pig tissue treated” value (exposition time 30 min) was 3 UCF/plate, the “UCF/plate in pig tissue treated” value (exposition time 1 hour) was 7 UCF/plate and the “UCF/plate in pig tissue treated” value (exposition time 3 hours) was 1 UCF/plate.
